Measured values as given in ChEMBL document CHEMBL1201862, “PubChem BioAssay data set” (2004).
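Step 1: Grow cells in 96-well plates. Step 2: Expose to compound for 48 hours at 5 concentrations. Step 3: Interpolate endpoints linearly; if unreached, use highest concentration. GI50 marks 50% less growth.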 Active and inactive are the calls of the source. Cut-off read from the data, not from the text of the source: active = GI50 up to about 1.1 µM and inactive = higher.

What was measured:
Assay in all cases: NCI-60 cell line screen, 48 h
[1] = test system: A498
[2] = test system: HOP-62
[3] = test system: DU-145
[4] = test system: Malme-3M
[5] = test system: UO-31
[6] = test system: NCI-H522
[7] = test system: SF-268
[8] = test system: EKVX
[9] = test system: OVCAR-8
[10] = test system: NCI-H23
[11] = test system: SN12C
[12] = test system: K562
[13] = test system: 786-0
[14] = test system: HCT-15
[15] = test system: UACC-257
[16] = test system: OVCAR-5
[17] = test system: U-251
[18] = test system: BT-549
[19] = test system: UACC-62
[20] = test system: KM12
[21] = test system: MDA-N
[22] = test system: MDA-MB-435
[23] = test system: NCI-H460
[24] = test system: A549
[25] = test system: HT-29
[26] = test system: PC-3
[27] = test system: RXF 393
[28] = test system: CCRF-CEM
[29] = test system: SK-MEL-2
[30] = test system: MDA-MB-231
[31] = test system: OVCAR-4
[32] = test system: T47D
[33] = test system: SK-OV-3
[34] = test system: SW-620
[35] = test system: CAKI-1
[36] = test system: Hs-578T
[37] = test system: SR
[38] = test system: HOP-92
[39] = test system: ACHN
[40] = test system: IGROV-1
[41] = test system: NCI-H226
[42] = test system: SF-539
[43] = test system: HCC 2998
[44] = test system: RPMI-8226
[45] = test system: SNB-19
[46] = test system: SK-MEL-5
[47] = test system: MCF7
[48] = test system: NCI/ADR-RES
[49] = test system: M14
[50] = test system: OVCAR-3
[51] = test system: TK-10
[52] = test system: COLO 205
[53] = test system: LOX IMVI
[54] = test system: HCT-116
[55] = test system: MOLT-4
[56] = test system: SK-MEL-28
[57] = test system: HL-60
[58] = test system: SF-295
[59] = test system: SNB-75

Measured: GI50

O=C1OC(=O)C(=C\c2ccc3c(c2)OCO3)/C1=C/c1ccc2c(c1)OCO2
inactive: [1] > 100 µM | [2] > 100 µM | [3] > 100 µM | [4] > 100 µM | [5] > 100 µM | [6] 36.1 µM | [7] > 100 µM | [8] > 100 µM | [9] > 84.5 µM | [10] > 80.9 µM | [11] > 100 µM | [12] > 79.8 µM | [13] > 100 µM | [15] > 100 µM | [16] > 100 µM | [17] > 80.7 µM | [18] > 100 µM | [19] > 72.1 µM | [20] > 100 µM | [21] > 100 µM | [22] > 100 µM | [23] > 100 µM | [24] 37.9 µM | [25] > 100 µM | [26] > 100 µM | [27] > 89.1 µM | [28] 25.9 µM | [29] > 100 µM | [30] > 100 µM | [31] > 100 µM | [32] > 100 µM | [33] > 100 µM | [34] > 100 µM | [35] > 100 µM | [36] > 88.5 µM | [37] > 52.8 µM | [38] > 100 µM | [39] > 100 µM | [40] > 100 µM | [41] > 93.5 µM | [42] > 100 µM | [43] > 100 µM | [44] > 55.6 µM | [45] > 100 µM | [46] > 100 µM | [47] > 100 µM | [48] > 100 µM | [49] > 100 µM | [50] > 100 µM | [51] > 100 µM | [52] > 100 µM | [53] > 100 µM | [54] > 100 µM | [55] 37.8 µM | [56] > 100 µM | [57] 44.8 µM | [58] > 100 µM
> 100 µM: [14]

OCC1OC(n2cnc3cccnc32)CC1O (centres undefined)
> 100 µM: [14]
inactive: [1] > 100 µM | [2] > 100 µM | [3] > 100 µM | [5] > 100 µM | [6] > 100 µM | [7] > 100 µM | [8] > 100 µM | [9] > 100 µM | [10] > 100 µM | [11] > 100 µM | [12] > 100 µM | [13] > 100 µM | [15] > 100 µM | [16] > 100 µM | [17] > 100 µM | [18] > 100 µM | [19] > 100 µM | [20] > 100 µM | [21] > 100 µM | [22] > 100 µM | [23] > 100 µM | [24] > 100 µM | [25] > 100 µM | [26] > 100 µM | [27] > 100 µM | [28] > 100 µM | [29] > 100 µM | [30] > 100 µM | [31] > 100 µM | [32] > 100 µM | [34] > 100 µM | [35] > 100 µM | [36] > 100 µM | [37] > 100 µM | [38] > 100 µM | [39] > 100 µM | [40] > 100 µM | [41] > 100 µM | [42] > 100 µM | [43] > 100 µM | [45] > 100 µM | [59] 7.76 µM | [46] > 100 µM | [47] > 100 µM | [48] > 100 µM | [49] > 100 µM | [50] > 100 µM | [51] > 100 µM | [52] > 100 µM | [53] > 100 µM | [54] > 100 µM | [55] > 100 µM | [56] > 100 µM | [57] > 100 µM | [58] > 100 µM

CC(=O)OC1C[C@@H](C)C2(CC(c3ccoc3)OC2=O)C2CCC(O)C3(CO3)C12CO (some centres undefined)
inactive: [1] > 100 µM | [2] > 100 µM | [3] > 100 µM | [4] > 100 µM | [5] > 100 µM | [6] > 100 µM | [7] > 100 µM | [9] > 100 µM | [10] > 100 µM | [11] > 100 µM | [12] > 100 µM | [13] > 100 µM | [15] > 100 µM | [16] > 100 µM | [17] > 100 µM | [18] > 100 µM | [19] > 100 µM | [20] > 100 µM | [21] > 100 µM | [22] > 100 µM | [23] > 100 µM | [24] > 100 µM | [25] > 100 µM | [26] > 100 µM | [27] > 100 µM | [28] > 100 µM | [29] > 100 µM | [30] > 100 µM | [31] > 100 µM | [32] > 100 µM | [34] > 100 µM | [35] > 100 µM | [36] > 100 µM | [37] > 100 µM | [38] > 100 µM | [39] > 100 µM | [40] > 100 µM | [41] > 100 µM | [42] > 100 µM | [43] > 100 µM | [44] > 100 µM | [45] > 100 µM | [59] > 100 µM | [46] > 100 µM | [47] > 100 µM | [48] > 100 µM | [49] > 100 µM | [50] > 100 µM | [51] > 100 µM | [52] > 100 µM | [53] > 100 µM | [54] > 100 µM | [55] > 100 µM | [56] > 100 µM | [57] > 100 µM | [58] > 100 µM
> 100 µM: [14]

Cc1ccc(Nc2nnc3n2S(=O)(=O)c2cc(C)c(Cl)cc2S3)cc1
inactive: [1] 15.4 µM | [2] 6.35 µM | [3] 8.09 µM | [5] 17.3 µM | [6] 2.18 µM | [7] 4.25 µM | [8] 25.4 µM | [9] 12.6 µM | [10] 8.95 µM | [12] 3.4 µM | [13] 10.3 µM | [15] 34.5 µM | [16] 14.1 µM | [17] 4.66 µM | [18] 5.28 µM | [20] 6.56 µM | [21] 1.7 µM | [22] 3.64 µM | [23] 7.23 µM | [24] 8.39 µM | [25] 10.3 µM | [26] 4.39 µM | [27] 10.5 µM | [29] 3.91 µM | [30] 13.4 µM | [31] 22.8 µM | [32] 17.7 µM | [34] 14.5 µM | [35] 23 µM | [36] 2.89 µM | [37] 2.4 µM | [38] 4.89 µM | [39] 27.9 µM | [40] 4.4 µM | [41] 10.7 µM | [42] 3.77 µM | [43] 18.2 µM | [44] 18.4 µM | [59] 6.93 µM | [46] 3.6 µM | [47] 5.26 µM | [48] 16.1 µM | [49] 7.14 µM | [50] 2 µM | [51] 35.2 µM | [53] 6.14 µM | [54] 6.37 µM | [55] 4.25 µM | [56] 19.6 µM | [57] 3.48 µM | [58] 3.22 µM
5.05 µM: [14]

c1ccc(C(Oc2noc3ccccc23)c2ccccc2)cc1
31.3 µM: [14]
inactive: [1] 39 µM | [2] 88.5 µM | [3] 34 µM | [4] 67.5 µM | [5] 39.5 µM | [6] 26.1 µM | [7] 65.8 µM | [8] 40.9 µM | [9] 45.3 µM | [10] 41.7 µM | [11] 35.7 µM | [12] 23.8 µM | [13] 48.8 µM | [15] 29.5 µM | [16] 51.4 µM | [17] 31.7 µM | [18] 32.1 µM | [19] 31.8 µM | [20] 29.1 µM | [21] 19.9 µM | [22] 20.3 µM | [23] 29.2 µM | [24] 39.5 µM | [25] 36.7 µM | [26] 34.4 µM | [27] 14.9 µM | [28] 15.9 µM | [30] 36.2 µM | [31] 22.2 µM | [32] 3.64 µM | [33] 57 µM | [34] 30.8 µM | [35] 62.2 µM | [36] 66.4 µM | [37] 13.2 µM | [38] 35.6 µM | [39] 51.3 µM | [40] 49.9 µM | [41] 50.2 µM | [43] 21.7 µM | [45] 46 µM | [59] 12.6 µM | [46] 18.7 µM | [47] 37.3 µM | [48] 30.8 µM | [49] 25.2 µM | [50] 35.2 µM | [51] 47.6 µM | [52] 16.9 µM | [53] 38.7 µM | [54] 25.9 µM | [55] 14.8 µM | [56] 65.5 µM | [57] 23.4 µM | [58] 33 µM
